# Assay results taken from US11364275B2, “Linear lipopeptide paenipeptins and methods of using the same” (priority 2017, dated 2022).
# Where two headings read alike, the source gives them in different places. Where a SMILES comes first, the peptide text is derived from it. [ ]: non-standard residue; d: D form. The star is where a group is joined. ξ: configuration not given here. Cha = N[C@@H](CC1CCCCC1)C(=O)O; Thr(3ξ) = CC(O)[C@H](N)C(=O)O; Decanoyl = CCCCCCCCCC(=O)*; Heptanoyl = CCCCCCC(=O)*; Octanoyl = CCCCCCCC(=O)*; Dab = NCC[C@H](N)C(=O)O
# Experiments:
# [1] = test system: Enterococcus faecium ATCC 19434; assay type: cell-based; details: ATCC 19434
# Description: (§4) The minimum inhibitory concentration (MIC) of paenipeptin analogues was determined using the broth microdilution method (Wirker, M. A. Methods for Dilution Antimicrobial Susceptibility Tests for Bacteria that Grow Aerobically: Approved Standard M07-A8; Clinical and Laboratory Standards Institute, Wayne, Pa., 2009). Seven reference strains (Acinetobacter baumannii ATCC 19606, Escherichia coli ATCC 25922, Klebsiella pneumoniae ATCC 13883, Pseudomonas aeruginosa ATCC 27853, Enterococcus faecium ATCC 19434, Staphylococcus aureus ATCC 29213 and methicillin-resistant S. aureus ATCC 43300) were subjected to MIC testing.
# (§5) Paenipeptin analogues were two-fold diluted in tryptic soy broth (TSB; Becton Dickinson) and mixed with an equal volume of bacterial suspensions in TSB containing approximately 1.5×10^5 colony-forming units (CFU)/mL in a clear UV-sterilized 96-well microtiter plate (NBS, Corning Inc., Corning, N.Y.). […] The microtiter plate was incubated at 37° C. for 18-20 h.
# rabbit red blood cells = assay: Hemolytic activity; assay type: cell-based; details: for Hemolysis: relative to Triton X-100
# Description: Hemolytic activity was evaluated using defibrinated rabbit blood in a 96-well plate as described previously. A nonionic surfactant Triton X-100, which is capable of lysing red blood cells (RBCs), was used at 0.1% as a positive control. Briefly, rabbit blood (Hardy Diagnostics, Santa Maria, Calif.) was diluted with phosphate buffered saline (PBS; pH 7.2) at a 1:19 ratio (v/v) and free hemoglobin was removed by washing RBCs and centrifugation four times at 1,000×g at 4° C. for 5 min. Aliquots (50 μL) of washed RBCs were incubated with 150 μL two-fold dilutions of paenipeptin analogues at final concentrations of 16-128 μg/mL at 37° C. for 30 min in a microtiter plate (NBS, Corning Inc.). After incubation, treated RBCs were gently mixed by repeated pipetting. Aliquots (20 μL) of the cell suspension were mixed with 200 μL PBS in a new 96-well plate and centrifuged at 2,204×g for 10 min. The supernatant was transferred to a new 96-well plate for absorbance measurement at 415 nm using a Cell Imaging Multimode Reader (Cytation 3, BioTek; Winooski, Vt.). The percent hemolysis observed after exposure to each paenipeptin analogue was calculated relative to Triton X-100.
# [2] = test system: Acinetobacter baumannii ATCC 19606; assay type: cell-based; details: ATCC 19606
# Description: as §4, §5
# [3] = test system: Escherichia coli ATCC 25922; assay type: in vitro ADME
# Description: To determine the stability of peptides in human serum, paenipeptin analogues were added into 100% human serum to a final concentration of 64 μg/ml. The mixtures were incubated at 37° C. and samples were withdrawn at 0, 6, 12 and 24 h. […] The residual antibacterial activity after incubation in human serum was compared to the non-treated control.
# [4] = test system: Klebsiella pneumoniae ATCC 13883; assay: MIC of antibiotics with or without paenipeptin analogues (potentiation); assay type: cell-based; details: K. pneumoniae ATCC 13883; for Sensitization factor (clarithromycin): 4 μg/mL paenipeptin
# From the text: (§1) Gram-negative bacteria, including Acinetobacter and Klebsiella, are intrinsically resistant to the hydrophobic antibiotic rifampicin.
# [5] = test system: Acinetobacter baumannii ATCC 19606; assay: as above; assay type: cell-based; details: A. baumannii ATCC 19606; for Sensitization factor (clarithromycin) / Sensitization factor (erythromycin): 4 μg/mL paenipeptin
# From the text: as §1
# S. aureus ATCC 29213 [6] = assay type: cell-based, Staphylococcus aureus; details: ATCC 29213
# Description: (§2) The impact of human serum on the antibacterial activity of selected paenipeptin analogues was determined using a procedure similar to that used for MIC determination as described above except that the microbiological medium was replaced by human serum (MP Biomedicals, Solon, Ohio). Paenipeptin analogues were two-fold diluted in 100% human serum and mixed with an equal volume of 90% serum containing approximately 1.5×10^5 CFU/mL of E. coli ATCC 25922 or S. aureus ATCC 29213. The final paenipeptin concentrations ranged from 0.5-64 μg/mL in 95% serum. The MIC in the presence of serum was then tested as described above.
# [7] = test system: Pseudomonas aeruginosa ATCC 27853; assay type: cell-based; details: ATCC 27853
# Description: as §4, §5
# [8] = test system: Escherichia coli ATCC 25922; assay type: cell-based; details: ATCC 25922
# E. coli ATCC 25922 = assay type: cell-based, Escherichia coli; details: ATCC 25922
# Description: as §2
# P. aeruginosa ATCC 27853 = assay type: cell-based, Pseudomonas aeruginosa
# From the text: (§3) The surviving cells from each antimicrobial concentration with no visible growth were enumerated by plating on tryptic soy agar (TSA). MBC was defined as the lowest concentration of the antimicrobial agent that led to at least a 99.9% reduction in the number of viable bacterial cells relative to the initial inoculum. There were three independent experiments with one replicate in each experiment.
# [9] = test system: Staphylococcus aureus ATCC 29213; assay type: cell-based; details: ATCC 29213
# S. aureus ATCC 29213 [10] = assay type: cell-based, Staphylococcus aureus
# From the text: as §3
# [11] = test system: methicillin-resistant S. aureus ATCC 43300; assay type: cell-based, Staphylococcus aureus; details: ATCC 43300
# [12] = test system: Klebsiella pneumoniae ATCC 13883; assay type: cell-based; details: ATCC 13883
# Description: as §4, §5
# S. aureus ATCC 29213 [13] = details: cited from earlier work
# S. aureus ATCC 43300 = assay type: cell-based, Staphylococcus aureus
# From the text: as §3
Compound,MIC [1] [µg/mL],Hemolysis (rabbit red blood cells; 16 μg/mL) [%],Hemolysis (rabbit red blood cells; 32 μg/mL) [%],Hemolysis (rabbit red blood cells; 64 μg/mL) [%],hemolytic activity (in words) (rabbit red blood cells; 128 μg/mL),Hemolysis (rabbit red blood cells; 128 μg/mL) [%],MIC [2] [µg/mL],"MIC after incubation in human serum at 37° C. ([3]; ATCC 25922, 0 h) [µg/mL]","MIC after incubation in human serum at 37° C. ([3]; ATCC 25922, 12 h) [µg/mL]",MIC of ampicillin in the presence of […] μg/ml paenipeptin analogue [4] [μg/ml],MIC of erythromycin in the presence of […] μg/ml paenipeptin analogue [4] [μg/ml],MIC of rifampicin at 2 μg/mL of paenipeptin analogue [4] [μg/ml],MIC of rifampicin at 4 μg/mL of paenipeptin analogue [4],MIC of rifampicin at 2 μg/mL of paenipeptin analogue [5],MIC [7] [µg/mL],MIC [8] [µg/mL],Minimum inhibitory concentration [8] [µg/mL],MBC (P. aeruginosa ATCC 27853) [µg/mL],MIC [9] [µg/mL],Minimum inhibitory concentration [9] [µg/mL],also measured
CC[C@H](C)[C@H](NC(=O)[C@H](CCN)NC(=O)[C@@H](N)CC1CCCCC1)C(=O)N[C@@H](CCN)C(=O)N[C@H](Cc1ccccc1)C(=O)N[C@@H](CC(C)C)C(=O)N[C@@H](CCN)C(=O)N[C@@H](C(=O)N[C@@H](CC(C)C)C(=O)N[C@@H](CO)C(N)=O)C(C)C [Analogue 16] (H-[Cha][Dab]I[Dab][dF]L[Dab][dV]LS-NH2),>32,0.55 ± 0.75,0.33 ± 0.83,0.65 ± 0.62,non-hemolytic,1.63 ± 0.40,≥32,1 to 2,>32,32,0.0625,0.0039,<0.00098-0.00195 μg/ml,0.0039-0.0078 μg/ml,2 to 8,4 to 8,4 to 8,16 to 32,>32,>32,"MIC after incubation in human serum at 37° C. [3]: > 32 µg/mL; MIC after incubation in human serum at 37° C. ([3]; ATCC 25922, 24 h): >32 µg/mL; MIC of vancomycin in the presence of […] μg/ml paenipeptin analogue [4]: >32 μg/ml; Sensitization factor (clarithromycin) [4]: 2,048-4,096; MIC of ampicillin in the presence of […] μg/ml paenipeptin analogue [5]: 8-16 μg/ml; MIC of clarithromycin in the presence of […] μg/ml paenipeptin analogue [5]: 0.0156 μg/ml; MIC of erythromycin in the presence of […] μg/ml paenipeptin analogue [5]: 0.5 μg/ml; MIC of vancomycin in the presence of […] μg/ml paenipeptin analogue [5]: 0.5-1 μg/ml; Sensitization factor (clarithromycin) [5]: 2,048; Sensitization factor (erythromycin) [5]: 64; Sensitization factor (rifampicin) ([5]; MIC without / with 4 μg/mL paenipeptin): 4,096; Minimum inhibitory concentration (S. aureus ATCC 29213 [6]): >64 µg/mL; Minimum inhibitory concentration (E. coli ATCC 25922): 2 µg/mL"
CCCCCCC(=O)N[C@@H](CCN)C(=O)N[C@@H](Cc1ccccc1)C(=O)N[C@@H](CCN)C(=O)N[C@H](Cc1ccccc1)C(=O)N[C@@H](CC(C)C)C(=O)N[C@@H](CCN)C(=O)N[C@H](CC(C)C)C(=O)N[C@@H](CC(C)C)C(=O)N[C@@H](CO)C(N)=O [Analogue 6] (Heptanoyl-[Dab]F[Dab][dF]L[Dab][dL]LS-NH2),,0.14 ± 0.20,0.39 ± 0.30,2.03 ± 0.44,,8.34 ± 1.80,,,,,,,,,2 to 4,1 to 4,1 to 4,8 to 16,16 to 32,16 to 32,MBC (S. aureus ATCC 29213 [10]): 16 to 32 µg/mL; MIC [11]: 16 to 32 µg/mL
CCCCCCCCCC(=O)N[C@@H](CCN)C(=O)N[C@H](C(=O)N[C@H](C(=O)N[C@H](CC(C)C)C(=O)N[C@@H](CC(C)C)C(=O)N[C@@H](CCN)C(=O)N[C@@H](C(=O)N[C@@H](CC(C)C)C(=O)N[C@@H](CO)C(N)=O)C(C)C)C(C)O)[C@@H](C)CC (stereo partly drawn) [Analogue 13] (Decanoyl-[Dab]I[Thr(3ξ)][dL]L[Dab][dV]LS-NH2),≥32,1.25 ± 0.71,5.06 ± 1.14,10.0 ± 1.03,,24.9 ± 2.71,>32,,,,,>0.125,>2 μg/ml,>0.125 μg/ml,>32,>32,,,>32,,MIC [11]: >32 µg/mL; MIC of rifampicin at 4 μg/mL of paenipeptin analogue [5]: >0.125 μg/ml; MIC [12]: >32 µg/mL
CCCCCCCC(=O)N[C@@H](CCN)C(=O)N[C@H](C(=O)N[C@@H](CCN)C(=O)N[C@H](Cc1ccccc1)C(=O)N[C@@H](CC(C)C)C(=O)N[C@@H](CCN)C(=O)N[C@@H](C(=O)N[C@@H](CC(C)C)C(=O)N[C@@H](CCN)C(N)=O)C(C)C)[C@@H](C)CC [Analogue 9] (Octanoyl-[Dab]I[Dab][dF]L[Dab][dV]L[Dab]-NH2),,0.52 ± 0.58,0.80 ± 0.68,0.73 ± 0.50,non-hemolytic,2.25 ± 2.18,≥32,1 to 2,1 to 2,32,0.0625,,<0.00098-0.00195 μg/ml,0.0019 μg/ml,2 to 4,4 to 16,4 to 16,,>32,>32,"MIC of clarithromycin in the presence of […] μg/ml paenipeptin analogue [4]: 0.0156 μg/ml; MIC of vancomycin in the presence of […] μg/ml paenipeptin analogue [4]: 16 μg/ml; Sensitization factor (clarithromycin) [4]: 2,048; MIC of ampicillin in the presence of […] μg/ml paenipeptin analogue [5]: 1-2 μg/ml; MIC of erythromycin in the presence of […] μg/ml paenipeptin analogue [5]: 0.125-0.25 μg/ml; MIC of rifampicin at 4 μg/mL of paenipeptin analogue [5]: 0.00195 μg/ml; MIC of vancomycin in the presence of […] μg/ml paenipeptin analogue [5]: 0.25-0.5 μg/ml; Sensitization factor (clarithromycin) [5]: 4,096-8,192; Sensitization factor (erythromycin) [5]: 128-256; MIC [12]: >32 µg/mL; Minimum inhibitory concentration (E. coli ATCC 25922): 2 to 4 µg/mL"
MX-2401,,,,,,,,,,,,,,,,,,,,,MIC (S. aureus ATCC 29213 [13]; 95% mouse serum): 128 µg/mL; MIC (S. aureus ATCC 29213 [13]; microbiological medium): 2 µg/mL
CCCCCCC(=O)N[C@@H](CCN)C(=O)N[C@H](C(=O)N[C@@H](CCN)C(=O)N[C@H](Cc1ccccc1)C(=O)N[C@@H](CC(C)C)C(=O)N[C@@H](CCN)C(=O)N[C@H](CC(C)C)C(=O)N[C@@H](CC(C)C)C(=O)N[C@@H](CO)C(N)=O)[C@@H](C)CC [Analogue 5] (Heptanoyl-[Dab]I[Dab][dF]L[Dab][dL]LS-NH2),8 to 16,0.96 ± 0.59,1.39 ± 0.55,4.86 ± 1.05,,26.5 ± 4.45,8 to 16,,,,,,,,2 to 4,1 to 4,1 to 4,8 to 16,16 to 32,16 to 32,MBC (S. aureus ATCC 29213 [10]): 16 to 32 µg/mL; MBC (S. aureus ATCC 43300): 16 to 32 µg/mL
